# Data taken from US7041687B2, “Indazole compounds useful as protein kinase inhibitors” (Vertex Pharmaceuticals Incorporated, priority 2002, dated 2006).
# Assays:
# Type in all cases: biochemical
# [1] = molecular target: PKA (Homo sapiens, UniProt P17612); experiment: PKA inhibition assay (standard coupled enzyme assay); conditions: 50 μM ATP, 80 μM Kemptide, 18 nM PKA, 30° C.
# Description: Compounds were screened for their ability to inhibit PKA using a standard coupled enzyme assay (Fox et al., Protein Sci., (1998) 7, 2249). Assays were carried out in a mixture of 100 mM HEPES 7.5, 10 mM MgCl2, 25 mM NaCl, 1 mM DTT and 3% DMSO. Final substrate concentrations in the assay were 50 μM ATP (Sigma Chemicals) and 80 μM peptide (Kemptide, American Peptide, Sunnyvale, Calif.). Assays were carried out at 30° C. and 18 nM PKA. Final concentrations of the components of the coupled enzyme system were 2.5 mM phosphoenolpyruvate, 300 μM NADH, 30 μg/ml pyruvate kinase and 10 μg/ml lactate dehydrogenase.
# An assay stock buffer solution was prepared containing all of the reagents listed above, with the exception of ATP, and the test compound of interest. 55 μl of the stock solution was placed in a 96 well plate followed by addition of 2 μl of DMSO stock containing serial dilutions of the test compound (typically starting from a final concentration of 5 μM). The plate was preincubated for 10 minutes at 30° C. and the reaction initiated by addition of 5 μl of ATP (final concentration 50 μM). Initial reaction rates were determined with a Molecular Devices SpectraMax Plus plate reader over a 15 minute time course. IC50 and Ki data were calculated from non-linear regression analysis using the Prism software package (GraphPad Prism version 3.0a for Macintosh, GraphPad Software, San Diego Calif., USA).
# [2] = molecular target: AKT-3 (Homo sapiens, UniProt Q9Y243); experiment: AKT-3 inhibition assay (standard coupled enzyme assay); conditions: 170 μM ATP, 200 μM peptide, 45 nM AKT, 30° C.
# [3] = molecular target: T1, PDK-1 (Homo sapiens, UniProt O15530); experiment: PDK-1 inhibition assay (radioactive-phosphate incorporation); conditions: 40 μM ATP, 65 μM PDKtide, 25 nM PDK-1, 30° C.
# T1 sequence (O15530 1-556): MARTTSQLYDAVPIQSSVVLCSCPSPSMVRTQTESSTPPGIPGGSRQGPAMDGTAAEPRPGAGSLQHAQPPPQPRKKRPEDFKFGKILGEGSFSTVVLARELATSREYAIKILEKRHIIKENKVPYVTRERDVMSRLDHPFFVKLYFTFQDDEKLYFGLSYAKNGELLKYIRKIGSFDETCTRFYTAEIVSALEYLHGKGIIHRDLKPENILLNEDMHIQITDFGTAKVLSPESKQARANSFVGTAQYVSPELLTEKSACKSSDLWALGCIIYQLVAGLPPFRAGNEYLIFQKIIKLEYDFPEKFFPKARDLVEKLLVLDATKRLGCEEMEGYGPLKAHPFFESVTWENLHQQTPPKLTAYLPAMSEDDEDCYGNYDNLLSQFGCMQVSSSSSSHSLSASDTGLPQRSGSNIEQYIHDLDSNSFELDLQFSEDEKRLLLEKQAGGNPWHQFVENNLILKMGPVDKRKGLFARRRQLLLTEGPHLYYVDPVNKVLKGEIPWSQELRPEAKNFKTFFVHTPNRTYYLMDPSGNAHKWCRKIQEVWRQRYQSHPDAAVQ
# AKT-3, sequence (Q9Y243 whole entry): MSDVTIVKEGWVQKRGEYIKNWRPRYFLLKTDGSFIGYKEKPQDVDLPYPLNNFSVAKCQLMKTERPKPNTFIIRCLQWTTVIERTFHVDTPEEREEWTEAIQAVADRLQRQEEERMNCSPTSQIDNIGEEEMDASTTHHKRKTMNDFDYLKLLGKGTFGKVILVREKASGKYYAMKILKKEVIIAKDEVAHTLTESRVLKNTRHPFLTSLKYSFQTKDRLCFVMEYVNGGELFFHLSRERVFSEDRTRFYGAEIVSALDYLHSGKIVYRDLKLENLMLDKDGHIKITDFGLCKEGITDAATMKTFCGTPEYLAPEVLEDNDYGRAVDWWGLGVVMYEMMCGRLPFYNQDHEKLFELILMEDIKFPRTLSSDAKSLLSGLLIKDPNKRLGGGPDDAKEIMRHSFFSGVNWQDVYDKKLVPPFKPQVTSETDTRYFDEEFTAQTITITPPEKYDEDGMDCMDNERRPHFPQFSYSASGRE
SMILES,Ki [1] [nM],Ki [2] [nM],Ki [3] [nM]
N[C@@H](C(=O)Nc1ccc2[nH]ncc2c1)c1ccccc1 [Compound I-48],< 1000,1000 to 10000,
NC(C(=O)Nc1ccc2[nH]ncc2c1)c1ccc(Cl)c(Cl)c1 (stereo not shown) [Compound I-54],< 1000,1000 to 10000,> 3000
NC(C(=O)Nc1ccc2[nH]ncc2c1)c1ccc(F)c(Cl)c1 (stereo not shown) [Compound I-55],< 1000,1000 to 10000,
NC(C(=O)Nc1ccc2[nH]ncc2c1)c1c[nH]c2ccccc12 (stereo not shown) [Compound I-56],< 1000,1000 to 10000,
CNCCCNC(C(=O)Nc1ccc2[nH]ncc2c1)c1cccc(Cl)c1 (stereo not shown) [Compound I-67],< 1000,< 1000,
NCCNC(C(=O)Nc1ccc2[nH]ncc2c1)c1ccc2ccccc2c1 (stereo not shown) [Compound I-73],< 1000,< 1000,
Cc1n[nH]c2ccc(NC(=O)[C@H](O)c3cccc(Cl)c3)cc12 [Compound I-76],< 1000,1000 to 10000,
Cc1n[nH]c2ccc(NC(=O)[C@H](O)c3ccc(F)c(Cl)c3)cc12 [Compound I-77],< 1000,1000 to 10000,
O=C(Nc1ccc2[nH]nc(Cl)c2c1)[C@H](O)c1cccc(Cl)c1 [Compound I-78],< 1000,1000 to 10000,
Cc1n[nH]c2ccc(NC(=O)C(CCN)c3cccc(Cl)c3F)cc12 (stereo not shown) [Compound I-116],< 1000,< 1000,
Cc1n[nH]c2ccc(NC(=O)C(CCN)c3ccc(Cl)c(Cl)c3)cc12 (stereo not shown) [Compound I-117],< 1000,< 1000,< 1000
CCc1n[nH]c2ccc(NC(=O)C(CCN)c3ccc(Cl)c(Cl)c3)cc12 (stereo not shown) [Compound I-118],< 1000,< 1000,1000 to 3000
NCCC(C(=O)Nc1ccc2[nH]nc(-c3ccccc3)c2c1)c1ccc(Cl)c(Cl)c1 (stereo not shown) [Compound I-119],< 1000,< 1000,< 1000
Cc1n[nH]c2ccc(NC(=O)C(CCN)c3cccc(Cl)c3Cl)cc12 (stereo not shown) [Compound I-120],< 1000,< 1000,< 1000
NCCC(C(=O)Nc1cc(Cl)c2[nH]ncc2c1)c1ccc(Cl)c(Cl)c1 (stereo not shown) [Compound I-143],< 1000,< 1000,
NCCC(C(=O)Nc1cc(Br)c2[nH]ncc2c1)c1ccc(Cl)c(Cl)c1 (stereo not shown) [Compound I-144],< 1000,< 1000,

SMILES,Ki [1] [nM],Ki [2] [nM],Ki [3] [nM]
C#Cc1cccc(C(=O)Nc2n[nH]c3ccc(NC(=O)C(CCN)c4ccc(Cl)c(Cl)c4)cc23)c1 (stereo not shown) [Compound I-205],< 1000,< 1000,
NCCC(C(=O)Nc1ccc2[nH]nc(NC(=O)c3cccc([N+](=O)[O-])c3)c2c1)c1ccc(Cl)c(Cl)c1 (stereo not shown) [Compound I-208],< 1000,< 1000,
CNc1cccc(C(=O)Nc2n[nH]c3ccc(NC(=O)C(CCN)c4ccc(Cl)c(Cl)c4)cc23)c1 (stereo not shown) [Compound I-209],< 1000,< 1000,
CCNc1cccc(C(=O)Nc2n[nH]c3ccc(NC(=O)C(CCN)c4ccc(Cl)c(Cl)c4)cc23)c1 (stereo not shown) [Compound I-210],< 1000,< 1000,
NCCC(C(=O)Nc1ccc2[nH]nc(-c3ccc(C(=O)O)cc3)c2c1)c1ccccc1 (stereo not shown) [Compound I-237],< 1000,,< 1000
NCCC(C(=O)Nc1ccc2[nH]nc(-c3cccc(F)c3)c2c1)c1ccccc1 (stereo not shown) [Compound I-240],< 1000,,< 1000
Cc1n[nH]c2ccc(NC(=O)C(CN)c3ccc(Cl)s3)cc12 (stereo not shown) [Compound I-245],< 1000,< 1000,
Cc1ccc(-c2n[nH]c3ccc(NC(=O)C(CCN)c4ccccc4)cc23)cc1 (stereo not shown) [Compound I-249],< 1000,,< 1000
NCCC(C(=O)Nc1ccc2[nH]nc(-c3cccc(F)c3)c2c1)c1ccc(Cl)c(Cl)c1 (stereo not shown) [Compound I-252],< 1000,< 1000,
NCCC(C(=O)Nc1ccc2[nH]nc(-c3cccc(CN)c3)c2c1)c1ccccc1 (stereo not shown) [Compound I-260],< 1000,,< 1000
NCCC(C(=O)Nc1ccc2[nH]nc(-c3ccc(-c4nn[nH]n4)cc3)c2c1)c1ccccc1 (stereo not shown) [Compound I-261],< 1000,,< 1000
NCC[C@H](C(=O)Nc1ccc2[nH]nc(-c3ccc(C(=O)O)cc3)c2c1)c1ccccc1 [Compound I-263],< 1000,,< 1000
Cc1n[nH]c2ccc(NC(=O)C(CCN)c3ccccc3F)cc12 (stereo not shown) [Compound I-1026],< 1000,,< 1000
Cc1n[nH]c2ccc(NC(=O)[C@@H](CCN)c3ccccc3)cc12 [Compound I-1033],< 1000,,> 3000
Cc1n[nH]c2ccc(NC(=O)[C@H](CCN)c3ccccc3)cc12 [Compound I-1034],< 1000,,< 1000

# Next, values leading:
Ki [1] [nM],Ki [2] [nM],Ki [3] [nM],SMILES
< 1000,1000 to 10000,,NC(C(=O)Nc1ccc2[nH]ncc2c1)c1cccc(Cl)c1 (stereo not shown) [Compound I-51]
< 1000,10000 to 20000,,NC(C(=O)Nc1ccc2[nH]ncc2c1)c1cccc(Br)c1 (stereo not shown) [Compound I-52]
< 1000,< 1000,,"NCCNC(C(=O)Nc1ccc2[nH]ncc2c1)c1cccc(Cl)c1 (stereo not shown) [Compound I-59, 2-(2-Amino-ethylamino)-2-(3-chloro-phenyl)-N-(1H-indazol-5-yl)-acetamide]"
< 1000,< 1000,,NCC(C(=O)Nc1ccc2[nH]ncc2c1)c1cccc(Cl)c1 (stereo not shown) [Compound I-97]
< 1000,< 1000,1000 to 3000,NCCC(C(=O)Nc1ccc2[nH]ncc2c1)c1ccccc1 (stereo not shown) [Compound I-98]
< 1000,< 1000,> 3000,NCC(C(=O)Nc1ccc2[nH]ncc2c1)c1ccc(Cl)c(Cl)c1 (stereo not shown) [Compound I-99]
< 1000,< 1000,< 1000,NCCC(C(=O)Nc1ccc2[nH]ncc2c1)c1cccc(Cl)c1 (stereo not shown) [Compound I-100]
< 1000,< 1000,1000 to 3000,NCCC(C(=O)Nc1ccc2[nH]ncc2c1)c1cccc(Cl)c1F (stereo not shown) [Compound I-101]
< 1000,< 1000,> 3000,NCCC(C(=O)Nc1ccc2[nH]ncc2c1)c1ccc2ccccc2c1 (stereo not shown) [Compound I-102]
< 1000,< 1000,,NCCC(C(=O)Nc1ccc2[nH]ncc2c1)c1ccc(F)c(C(F)(F)F)c1 (stereo not shown) [Compound I-103]
< 1000,< 1000,,NCCC(C(=O)Nc1ccc2[nH]ncc2c1)c1cccc(C(F)(F)F)c1 (stereo not shown) [Compound I-104]
< 1000,< 1000,> 3000,NCCC(C(=O)Nc1ccc2[nH]ncc2c1)c1cc(C(F)(F)F)cc(C(F)(F)F)c1 (stereo not shown) [Compound I-105]
< 1000,< 1000,< 1000,NCCC(C(=O)Nc1ccc2[nH]ncc2c1)c1cccc(Cl)c1Cl (stereo not shown) [Compound I-106]
< 1000,1000 to 10000,1000 to 3000,NCCC(C(=O)Nc1ccc2[nH]ncc2c1)c1cccc(N)c1 (stereo not shown) [Compound I-107]
< 1000,< 1000,1000 to 3000,CSc1cccc(C(CCN)C(=O)Nc2ccc3[nH]ncc3c2)c1 (stereo not shown) [Compound I-108]
< 1000,< 1000,< 1000,NCCC(C(=O)Nc1ccc2[nH]ncc2c1)c1c(F)ccc(Cl)c1F (stereo not shown) [Compound I-109]
< 1000,< 1000,< 1000,NCCC(C(=O)Nc1ccc2[nH]ncc2c1)c1cccc(Br)c1 (stereo not shown) [Compound I-110]
< 1000,1000 to 10000,> 3000,COc1ccccc1C(CCN)C(=O)Nc1ccc2[nH]ncc2c1 (stereo not shown) [Compound I-113]
< 1000,< 1000,,NCCC(C(=O)Nc1ccc2[nH]ncc2c1)c1cc(C(F)(F)F)cc(Cl)n1 (stereo not shown) [Compound I-149]
< 1000,,< 1000,NCCC(C(=O)Nc1ccc2[nH]nc(-c3cccc(C(F)(F)F)c3)c2c1)c1ccccc1 (stereo not shown) [Compound I-230]
< 1000,< 1000,,NC[C@H](C(=O)Nc1ccc2[nH]ncc2c1)c1ccc(Cl)c(Cl)c1 [Compound I-243]
